Activity calls are given as the source filed them. No cut-off for these calls is given here. Numbered stars: 1 amine (or outer) side, 2 acyl side, 3 side chain; on linkers, the order of the positions; unused ones are H or OH. Bridge positions count the residues as written; N and C are the ends. Square brackets hold non-standard residues; d marks the D form. Peptide text beside a SMILES is read from it. Nle(6-ylidene) = O=C([C@H](CCCC=[*:3])N[*:1])[*:2]; Phe(4-Br) = N[C@@H](Cc1ccc(Br)cc1)C(=O)O; Phe(4-Cl) = N[C@@H](Cc1ccc(Cl)cc1)C(=O)O; Phe(4-F) = N[C@@H](Cc1ccc(F)cc1)C(=O)O; Phe(4-I) = N[C@@H](Cc1ccc(I)cc1)C(=O)O
What was measured:
Tubulin (Homo sapiens) [1] = target: T1, Tubulin (Homo sapiens) (UniProt P68371+Q9H4B7+P0DPH7+P68366+Q13509+Q71U36+P04350+Q3ZCM7+P07437+P68363+Q9BQE3+Q6PEY2+Q13885+Q9BVA1+Q9BUF5); test: Binding affinity to tubulin (unknown origin) assessed as association constant by SPR analysis; assay type: protein-complex assay
MCF7 [2] = test: Cytotoxicity against human MCF7 cells assessed as reduction in cell viability incubated for 24 hrs by MTT assay; assay type: functional, cell-based; conditions: MCF7, 24 h
Tubulin [3] = test: Binding affinity to tubulin (unknown origin) assessed as binding constant by SPR analysis; assay type: protein-complex assay, Homo sapiens
[4] = Toxicity in C57BL/6J mouse implanted with B16F10 cells assessed as change in body weight at 5 mg/kg, ip administered for 14 days; assay type: organism-based, B16-F10; conditions: in vivo, 336 h, time 14 day
Tubulin (Homo sapiens) [5] = target: T1, Tubulin (Homo sapiens); test: Induction of microtubule depolymerization in human MCF7 cells; assay type: cell-based
Tubulin (Homo sapiens) [6] = target: T1, Tubulin (Homo sapiens); test: Inhibition of tubulin polymerization (unknown origin) at 10 uM by turbidity assay; assay type: protein-complex assay
B16-F10 [7] = test: Antitumor activity against mouse B16F10 cells implanted in C57BL/6J mouse assessed as tumor cell damage at 5 mg/kg, ip administered for 14 days by caliper method; assay type: functional, organism-based; conditions: time 14.0 day
MCF7 [8] = test: Induction of apoptosis in human MCF7 cells assessed as upregulation of p21 protein expression by Western blot analysis; assay type: functional, cell-based
MCF7 [9] = test: Antitumor activity in human MCF7 cells cultured as 3D spheroids assessed as decrease in spheroid volume at 4 uM measured up to 7 days by inverted microscopic analysis; assay type: functional, cell-based; conditions: time <= 7.0 day
B16-F10 [10] = test: Antitumor activity against mouse B16-F10 cells implanted in C57BL/6J mouse assessed as reduction in tumor size at 5 mg/kg, ip administered for 14 days by caliper method; assay type: functional, organism-based; conditions: time 14.0 day
MCF7 [11] = test: Induction of apoptosis in human MCF7 cells assessed as necrotic cells by annexin V FITC and propidium iodide staining based flow cytometry (reference value: 0 %); assay type: functional
MCF7 [12] = test: Induction of apoptosis in human MCF7 cells assessed as viable cells by annexin V FITC and propidium iodide staining based flow cytometry (reference value: 100 %); assay type: functional
Tubulin (Homo sapiens) [13] = target: T1, Tubulin (Homo sapiens); test: Binding affinity to microtubule in human MCF7 cells at 20 uM after 2 hrs by Hoechst 33258 staining based fluorescence microscopy analysis; assay type: cell-based
MCF7 [14] = test: Induction of apoptosis in human MCF7 cells assessed as upregulation of Mad2 protein expression by Western blot analysis; assay type: functional, cell-based
MCF7 [15] = test: Induction of apoptosis in human MCF7 cells assessed as early apoptotic cells by annexin V FITC and propidium iodide staining based flow cytometry (reference value: 0 %); assay type: functional
MCF7 [16] = test: Induction of apoptosis in human MCF7 cells assessed as upregulation of BubR1 protein expression by Western blot analysis; assay type: functional, cell-based
[17] = Metabolic stability in human plasma at 200 uM incubated for 24 hrs by MALDI-MS analysis; assay type: ADME, cell-free
Tubulin (Homo sapiens) [18] = target: T1, Tubulin (Homo sapiens); test: Inhibition of tubulin polymerization (unknown origin) at 10 uM by DAPI staining based assay; assay type: protein-complex assay
MCF7 [19] = test: Induction of cell cycle arrest in human MCF7 cells assessed as accumulation of cells at G2/M phase; assay type: functional, cell-based
B16-F10 [20] = test: Antitumor activity against mouse B16F10 cells implanted in C57BL/6J mouse assessed as blood vessels damage at 5 mg/kg, ip administered for 14 days by caliper method; assay type: functional, organism-based; conditions: time 14.0 day
MCF7 [21] = test: Induction of apoptosis in human MCF7 cells assessed as upregulation of p53 protein expression by Western blot analysis; assay type: functional, cell-based
[22] = Drug uptake in human MCF7 cells at 4 uM incubated for 24 hrs by flow cytometry analysis; assay type: ADME, cell-based; conditions: mcf7, 24 h
MCF7 [23] = test: Drug uptake in human MCF7 cells at 4 uM incubated for 24 hrs by fluorescence microscopic analysis; assay type: functional, cell-based
Tubulin [24] = test: Binding affinity to tubulin (unknown origin) assessed as binding constant by ITC analysis; assay type: protein-complex assay, Homo sapiens
MCF7 [25] = test: Induction of apoptosis in human MCF7 cells assessed as late apoptotic cells by annexin V FITC and propidium iodide staining based flow cytometry (reference value: 0 %); assay type: functional
B16-F10 [26] = test: Antitumor activity against mouse B16F10 cells implanted in C57BL/6J mouse assessed as tumor muscle damage at 5 mg/kg, ip administered for 14 days by caliper method; assay type: functional, organism-based; conditions: time 14.0 day
Tubulin [27] = test: Binding affinity to tubulin (unknown origin) assessed as binding constant by tryptophan quenching analysis; assay type: protein-complex assay, Homo sapiens

Row | Compound | Ka (Tubulin (Homo sapiens) [1]) | IC50 (MCF7 [2]) [µM] | Kd (Tubulin [3]) [µM] | Activity (Tubulin (Homo sapiens) [5]) | Activity (MCF7 [8]) | Activity (MCF7 [11]) [%] | Activity (MCF7 [12]) [%] | Activity (MCF7 [14]) | Activity (MCF7 [15]) [%] | Activity (MCF7 [16]) | Stability [17] | Activity (MCF7 [19]) | Activity (MCF7 [21]) | Drug uptake [22] | Activity (MCF7 [23]) | Ka (Tubulin [24]) [M⁻¹] | Activity (MCF7 [25]) [%] | other results
1 | CC(=O)N[C@@H](Cc1ccccc1)C(=O)N[C@@H](CCCNC(=N)N)C(=O)N[C@@H](CCCNC(=N)N)C(=O)N[C@@H](CCCCN)C(=O)N[C@@H](C)C(=O)N[C@@H](Cc1ccc(Br)cc1)C(=O)N[C@H]1CCC/C=C\CCC[C@@H](C(=O)NCC(=O)O)NC(=O)[C@H](Cc2ccc(O)cc2)NC(=O)[C@H](Cc2c[nH]c3ccccc23)NC(=O)[C@H](Cc2cnc[nH]2)NC1=O (Ac-FRRKA[Phe(4-Br)][Nle(6-ylidene)]HWY[Nle(6-ylidene)]G-OH; staple (Z) 7-11) | 1.9 10^4/M/s | 33.8 | 4 | – | – | – | – | – | – | – | – | – | – | – | – | – | – | –
2 | CC(=O)N[C@@H](Cc1ccccc1)C(=O)N[C@@H](CCCNC(=N)N)C(=O)N[C@@H](CCCNC(=N)N)C(=O)N[C@@H](CCCCN)C(=O)N[C@@H](C)C(=O)N[C@@H](Cc1ccc(F)cc1)C(=O)N[C@H]1CCC/C=C\CCC[C@@H](C(=O)NCC(=O)O)NC(=O)[C@H](Cc2ccc(O)cc2)NC(=O)[C@H](Cc2c[nH]c3ccccc23)NC(=O)[C@H](Cc2c[nH]cn2)NC1=O (Ac-FRRKA[Phe(4-F)][Nle(6-ylidene)]HWY[Nle(6-ylidene)]G-OH; staple (Z) 7-11) | 2.14 10^4/M/s | 3.71 | 3.6 | Active | Active | 6.3 | 12.2 | Active | 23.5 | Active | Stable | Active | Active | Active | Active | 45200 | 58 | Activity [4]: Non-Toxic; inhibition (Tubulin (Homo sapiens) [6]): Active; Activity (B16-F10 [7]): Active; Activity (MCF7 [9]): Active; Activity (B16-F10 [10]): Active; Activity (Tubulin (Homo sapiens) [13]): Active; inhibition (Tubulin (Homo sapiens) [18]): Active; Activity (B16-F10 [20]): Active; Activity (B16-F10 [26]): Active; Ka (Tubulin [27]): 46300 M⁻¹
3 | C[C@H](NC(=O)[C@H](CCCCN)NC(=O)[C@H](CCCNC(=N)N)NC(=O)[C@H](CCCNC(=N)N)NC(=O)[C@@H](N)Cc1ccccc1)C(=O)N[C@@H](Cc1ccccc1)C(=O)N[C@H]1CCC/C=C\CCC[C@@H](C(=O)NCC(=O)O)NC(=O)[C@H](Cc2ccc(O)cc2)NC(=O)[C@H](Cc2c[nH]c3ccccc23)NC(=O)[C@H](Cc2c[nH]cn2)NC1=O (H-FRRKAF[Nle(6-ylidene)]HWY[Nle(6-ylidene)]G-OH; staple (Z) 7-11) | 1.43 10^4/M/s | 37.2 | 7 | Active | Active | 43.6 | 31.8 | Active | 0.5 | Active | Stable | Active | Active | Active | Active | 10500 | 24.2 | –
4 | CC(=O)N[C@@H](Cc1ccccc1)C(=O)N[C@@H](CCCNC(=N)N)C(=O)N[C@@H](CCCNC(=N)N)C(=O)N[C@@H](CCCCN)C(=O)N[C@@H](C)C(=O)N[C@@H](Cc1ccc(I)cc1)C(=O)N[C@H]1CCC/C=C\CCC[C@@H](C(=O)NCC(=O)O)NC(=O)[C@H](Cc2ccc(O)cc2)NC(=O)[C@H](Cc2c[nH]c3ccccc23)NC(=O)[C@H](Cc2cnc[nH]2)NC1=O (Ac-FRRKA[Phe(4-I)][Nle(6-ylidene)]HWY[Nle(6-ylidene)]G-OH; staple (Z) 7-11) | – | 52.3 | 4.1 | – | – | – | – | – | – | – | – | – | – | – | – | – | – | –
5 | CC(C)C[C@H](NC(=O)[C@H](Cc1ccccc1)NC(=O)[C@H](C)NC(=O)[C@H](CCCCN)NC(=O)[C@H](CCCNC(=N)N)NC(=O)[C@H](CCCNC(=N)N)NC(=O)[C@@H](N)Cc1ccccc1)C(=O)N[C@@H](Cc1c[nH]cn1)C(=O)N[C@@H](Cc1c[nH]c2ccccc12)C(=O)N[C@@H](Cc1ccc(O)cc1)C(=O)N[C@H](C(=O)NCC(=O)O)[C@@H](C)O (H-FRRKAFLHWYTG-OH) | – | 272 | – | – | – | – | – | – | – | – | Unstable | – | – | – | – | – | – | –
6 | CC(=O)N[C@@H](Cc1ccccc1)C(=O)N[C@@H](CCCNC(=N)N)C(=O)N[C@@H](CCCNC(=N)N)C(=O)N[C@@H](CCCCN)C(=O)N[C@@H](C)C(=O)N[C@@H](Cc1ccc(Cl)cc1)C(=O)N[C@H]1CCC/C=C\CCC[C@@H](C(=O)NCC(=O)O)NC(=O)[C@H](Cc2ccc(O)cc2)NC(=O)[C@H](Cc2c[nH]c3ccccc23)NC(=O)[C@H](Cc2cnc[nH]2)NC1=O (Ac-FRRKA[Phe(4-Cl)][Nle(6-ylidene)]HWY[Nle(6-ylidene)]G-OH; staple (Z) 7-11) | 2.05 10^4/M/s | 18.7 | 3.3 | – | – | – | – | – | – | – | – | – | – | – | – | – | – | –
